{"source": "patent US20240409585A1", "about": "“MACROCYCLIC IMMUNOMODULATORS” (priority 2021, published 2024)", "target": "T1, Alexa fluor-647 labeled human PD-L1-Ig binding to Jurkat cell line over-expressing human PD-1 (Homo sapiens, UniProt Q15116)", "T1 construct": "expressed in transfected cells; host or cells: Jurkat", "T1 sequence (Q15116 25-288)": "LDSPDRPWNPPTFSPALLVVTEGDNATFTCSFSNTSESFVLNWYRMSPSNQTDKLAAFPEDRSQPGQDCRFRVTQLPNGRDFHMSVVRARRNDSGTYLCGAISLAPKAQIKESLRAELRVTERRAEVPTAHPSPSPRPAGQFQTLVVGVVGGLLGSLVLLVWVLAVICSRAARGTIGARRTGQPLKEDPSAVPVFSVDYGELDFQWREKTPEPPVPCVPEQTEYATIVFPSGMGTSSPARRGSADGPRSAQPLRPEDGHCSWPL", "assay": "Jurkat-PD-1 Cell Binding High-Content Screening Assay (CBA): Method 3 (Alexa fluor-647 labeled PD-L1-Ig)", "conditions": "Jurkat-PD-1 cells, Alexa fluor-647 labeled PD-L1-Ig 177 nM", "procedure,_shortened": "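Readout by high-content imaging of PFA-fixed, Hoechst-stained cells after 1 h with 177 nM (final) Alexa fluor-647 PD-L1-Ig. Compound was added first to hPD-1 Jurkat cells in RPMI plus 10% FCS for 2 h at 37 °C.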", "key": {"[1]": {"conditions": "head μM, read-out: CBA Method 3 μM"}}, "note": "Like-named read-outs stand apart in the source and are kept apart here. Numbered stars: 1 amine (or outer) side, 2 acyl side, 3 side chain; on linkers, the order of the positions; unused ones are H or OH. Bridge positions count the residues as written; N and C are the ends. Square brackets hold non-standard residues; d marks the D form. Peptide text beside a SMILES is read from it. * marks the point of attachment. Bip(4'-COOH) = N[C@@H](Cc1ccc(-c2ccc(C(=O)O)cc2)cc1)C(=O)O; Bip(4'-NHAc) = CC(=O)Nc1ccc(-c2ccc(C[C@H](N)C(=O)O)cc2)cc1; X20 = CC(NC[C@H](N[*:1])C(=O)[*:2])=C1C(=O)CC(C)(C)CC1=O; Phe(3-CF3) = N[C@@H](Cc1cccc(C(F)(F)F)c1)C(=O)O; Ala(morpholin-4-yl) = N[C@@H](CN1CCOCC1)C(=O)O; Phe(4-COOH) = N[C@@H](Cc1ccc(C(=O)O)cc1)C(=O)O; Bip = N[C@@H](Cc1ccc(-c2ccccc2)cc1)C(=O)O; Abu(3R-NH2) = C[C@@H](N)[C@H](N)C(=O)O; Phe(3-Me) = Cc1cccc(C[C@H](N)C(=O)O)c1; Ala(cPr) = N[C@@H](CC1CC1)C(=O)O; hArg = N=C(N)NCCCC[C@H](N)C(=O)O; hPhe = N[C@@H](CCc1ccccc1)C(=O)O; Cha = N[C@@H](CC1CCCCC1)C(=O)O; Carboxymethyl = O=C(O)C*; NMeA = CN[C@@H](C)C(=O)O; Orn = NCCC[C@H](N)C(=O)O; Dab = NCC[C@H](N)C(=O)O", "data": [{"smiles": "Cc1cccc(C[C@@H]2NC(=O)[C@H](CC(=O)O)NC(=O)[C@H](Cc3ccc(OCC(=O)O)cc3)NC(=O)[C@H](Cc3ccccc3)NC(=O)CSC[C@@H](C(=O)N[C@@H](CCN)C(N)=O)NC(=O)[C@H](CCCN)NC(=O)[C@H](C(C)C)NC(=O)[C@H](CC3CCCCC3)NC(=O)[C@H](CCN)NC(=O)[C@@H](CC(C)C)NC(=O)[C@H](C)N(C)C(=O)[C@H](CCC(N)=O)NC(=O)[C@H](Cc3ccc(-c4ccccc4)cc3)NC(=O)[C@H](Cc3ccc(C(=O)O)cc3)NC2=O)c1", "note": "[Example 5267] ({CH2CO}-FY(Carboxymethyl)D[Phe(3-Me)][Phe(4-COOH)][Bip]Q[NMeA][dL][Dab][Cha]V[Orn]C[Dab]-NH2; thioether N-14)", "values": [{"measurement": "IC50", "setting": "nM, read-out: CBA Method 3", "result": 1.2, "unit": "nM"}]}, {"smiles": "CC(C)C[C@H]1NC(=O)[C@H](C)N(C)C(=O)[C@H](Cc2ccc(C(=O)O)cc2)NC(=O)[C@H](Cc2ccc(-c3ccccc3)cc2)NC(=O)[C@H](Cc2ccc(-c3ccc(C(=O)O)cc3)cc2)NC(=O)[C@H](Cc2cccc(C(F)(F)F)c2)NC(=O)[C@H](CC(=O)O)NC(=O)[C@H](Cc2ccc(C(=O)O)cc2)NC(=O)[C@H](Cc2ccc(OCC(=O)O)cc2)NC(=O)CSC[C@@H](C(=O)N[C@@H](CCN)C(N)=O)NC(=O)[C@H](CCC(=O)O)NC(=O)[C@H](C(C)C)NC(=O)[C@H](CC2CCCCC2)NC(=O)[C@H](CCN)NC1=O", "note": "[Example 5164] ({CH2CO}-Y(Carboxymethyl)[Phe(4-COOH)]D[Phe(3-CF3)][Bip(4'-COOH)][Bip][Phe(4-COOH)][NMeA][dL][Dab][Cha]VEC[Dab]-NH2; thioether N-14)", "values": [{"measurement": "IC50", "setting": "[1]", "result": 150, "unit": "nM"}]}, {"smiles": "CC(C)C[C@H]1NC(=O)[C@H](C)N(C)C(=O)[C@H](CCC(N)=O)NC(=O)[C@H](Cc2ccc(-c3ccccc3)cc2)NC(=O)[C@H](Cc2ccc(OCC(=O)O)cc2)NC(=O)[C@H](Cc2cccc(C(F)(F)F)c2)NC(=O)[C@H](CC(=O)O)NC(=O)[C@H](Cc2ccc(O)cc2)NC(=O)[C@H](CC2CCCCC2)NC(=O)CSC[C@@H](C(=O)N[C@@H](CCN)C(N)=O)NC(=O)[C@H](CCCN)NC(=O)[C@H](C(C)C)NC(=O)[C@H](CC2CCCCC2)NC(=O)[C@H](CCN)NC1=O", "note": "[Example 5238] ({CH2CO}-[Cha]YD[Phe(3-CF3)]Y(Carboxymethyl)[Bip]Q[NMeA][dL][Dab][Cha]V[Orn]C[Dab]-NH2; thioether N-14)", "values": [{"measurement": "IC50", "setting": "[1]", "result": 10, "unit": "nM"}]}, {"smiles": "Cc1cccc(C[C@@H]2NC(=O)[C@H](CC(=O)O)NC(=O)[C@H](Cc3ccc(OCC(=O)O)cc3)NC(=O)[C@H](CC3CCCCC3)NC(=O)CSC[C@@H](C(=O)N[C@@H](CCN)C(N)=O)NC(=O)[C@H](CCCN)NC(=O)[C@H](C(C)C)NC(=O)[C@H](CN3CCOCC3)NC(=O)[C@H](CCN)NC(=O)[C@@H](CC(C)C)NC(=O)[C@H](C)N(C)C(=O)[C@H](CCC(N)=O)NC(=O)[C@H](Cc3ccc(-c4ccccc4)cc3)NC(=O)[C@H](Cc3ccc(C(=O)O)cc3)NC2=O)c1", "note": "[Example 5191] ({CH2CO}-[Cha]Y(Carboxymethyl)D[Phe(3-Me)][Phe(4-COOH)][Bip]Q[NMeA][dL][Dab][Ala(morpholin-4-yl)]V[Orn]C[Dab]-NH2; thioether N-14)", "values": [{"measurement": "IC50", "setting": "[1]", "result": 120, "unit": "nM"}]}, {"smiles": "CC(=O)Nc1ccc(-c2ccc(C[C@@H]3NC(=O)[C@H](Cc4cccc(C)c4)NC(=O)[C@H](CC(=O)O)NC(=O)[C@H](Cc4ccc(C(=O)O)cc4)NC(=O)[C@H](CC4CCCCC4)NC(=O)CSC[C@@H](C(=O)N[C@@H](CCN)C(N)=O)NC(=O)[C@H](CCC(N)=O)NC(=O)[C@H](C(C)C)NC(=O)[C@H](CC4CCCCC4)NC(=O)[C@H](CCN)NC(=O)[C@@H](CC(C)C)NC(=O)[C@H](C)N(C)C(=O)[C@H](Cc4ccc(C(=O)O)cc4)NC(=O)[C@H](Cc4ccc(-c5ccccc5)cc4)NC3=O)cc2)cc1", "note": "[Example 5200] ({CH2CO}-[Cha][Phe(4-COOH)]D[Phe(3-Me)][Bip(4'-NHAc)][Bip][Phe(4-COOH)][NMeA][dL][Dab][Cha]VQC[Dab]-NH2; thioether N-14)", "values": [{"measurement": "IC50", "setting": "[1]", "result": 20, "unit": "nM"}]}, {"smiles": "Cc1cccc(C[C@@H]2NC(=O)[C@H](CC(=O)O)NC(=O)[C@H](Cc3ccc(OCC(=O)O)cc3)NC(=O)[C@H](CC3CCCCC3)NC(=O)CSC[C@@H](C(=O)N[C@@H](CCN)C(N)=O)NC(=O)[C@H](CCCN)NC(=O)[C@H](C(C)C)NC(=O)[C@H](CC3CC3)NC(=O)[C@H](CCN)NC(=O)[C@@H](CC(C)C)NC(=O)[C@H](C)N(C)C(=O)[C@H](CCC(N)=O)NC(=O)[C@H](Cc3ccc(-c4ccccc4)cc3)NC(=O)[C@H](Cc3ccc(C(=O)O)cc3)NC2=O)c1", "note": "[Example 5192] ({CH2CO}-[Cha]Y(Carboxymethyl)D[Phe(3-Me)][Phe(4-COOH)][Bip]Q[NMeA][dL][Dab][Ala(cPr)]V[Orn]C[Dab]-NH2; thioether N-14)", "values": [{"measurement": "IC50", "setting": "[1]", "result": 150, "unit": "nM"}]}, {"smiles": "Cc1cccc(C[C@@H]2NC(=O)[C@H](CC(=O)O)NC(=O)[C@H](Cc3ccc(OCC(=O)O)cc3)NC(=O)[C@H](CCCCNC(=N)N)NC(=O)CSC[C@@H](C(=O)N[C@@H](CCN)C(N)=O)NC(=O)[C@H](CCCN)NC(=O)[C@H](C(C)C)NC(=O)[C@H](CC3CCCCC3)NC(=O)[C@H](CCN)NC(=O)[C@@H](CC(C)C)NC(=O)[C@H](C)N(C)C(=O)[C@H](CCC(N)=O)NC(=O)[C@H](Cc3ccc(-c4ccccc4)cc3)NC(=O)[C@H](Cc3ccc(C(=O)O)cc3)NC2=O)c1", "note": "[Example 5184] ({CH2CO}-[hArg]Y(Carboxymethyl)D[Phe(3-Me)][Phe(4-COOH)][Bip]Q[NMeA][dL][Dab][Cha]V[Orn]C[Dab]-NH2; thioether N-14)", "values": [{"measurement": "IC50", "setting": "nM, read-out: CBA Method 3", "result": 1.1, "unit": "nM"}]}, {"smiles": "CC(NC[C@@H]1NC(=O)[C@H](Cc2ccc(C(=O)O)cc2)NC(=O)[C@H](CN2CCOCC2)NC(=O)CSC[C@@H](C(=O)N[C@@H](CCN)C(N)=O)NC(=O)[C@H](CCCN)NC(=O)[C@H](C(C)C)NC(=O)[C@H](CC2CCCCC2)NC(=O)[C@H](CCN)NC(=O)[C@@H](CC(C)C)NC(=O)[C@H](C)N(C)C(=O)[C@H](CCC(N)=O)NC(=O)[C@H](Cc2ccc(-c3ccccc3)cc2)NC(=O)[C@H](Cc2ccc(C(=O)O)cc2)NC(=O)[C@H](Cc2cccc(C(F)(F)F)c2)NC1=O)=C1C(=O)CC(C)(C)CC1=O", "note": "[Example 5105] ({CH2CO}-[Ala(morpholin-4-yl)][Phe(4-COOH)][X20][Phe(3-CF3)][Phe(4-COOH)][Bip]Q[NMeA][dL][Dab][Cha]V[Orn]C[Dab]-NH2; thioether N-14)", "values": [{"measurement": "IC50", "setting": "[1]", "result": 20, "unit": "nM"}]}, {"smiles": "CC(C)C[C@H]1NC(=O)[C@H](C)N(C)C(=O)[C@H](CCC(N)=O)NC(=O)[C@H](Cc2ccc(-c3ccccc3)cc2)NC(=O)[C@H](CCc2ccccc2)NC(=O)[C@H](Cc2cccc(C(F)(F)F)c2)NC(=O)[C@H](CC(=O)O)NC(=O)[C@H](Cc2ccc(OCC(=O)O)cc2)NC(=O)[C@H]([C@@H](C)N)NC(=O)CSC[C@@H](C(=O)N[C@@H](CCN)C(N)=O)NC(=O)[C@H](CCC(N)=O)NC(=O)[C@H](C(C)C)NC(=O)[C@H](CC2CCCCC2)NC(=O)[C@H](CCN)NC1=O", "note": "[Example 5223] ({CH2CO}-[Abu(3R-NH2)]Y(Carboxymethyl)D[Phe(3-CF3)][hPhe][Bip]Q[NMeA][dL][Dab][Cha]VQC[Dab]-NH2; thioether N-14)", "values": [{"measurement": "IC50", "setting": "[1]", "result": 50, "unit": "nM"}]}]}
